Source: ChEMBL document CHEMBL5674860, “Optimized Dual-Glo Assay to identify co-culture-induced drug vulnerabilities in 3D CRC models” (2024)

What was measured:
Format in all cases: functional, Homo sapiens
Parameters in all cases: dose or concentration left out as unconfirmed
[1] = tested on: Colon cancer organoid; experiment: Optimized Dual-Glo assay to identify co-culture induced drug vulnerabilities using donated chemical probes and chemogenomics kinase set in O06 CRC organoid and F06 CAF mono and co-culture. […] Cell viability is reported both mono and co-culture models.
[2] = tested on: Colon cancer organoid; experiment: Optimized Dual-Glo assay to identify co-culture induced drug vulnerabilities using donated chemical probes and chemogenomics kinase set in O14 CRC organoid and F14 CAF mono and co-culture. […] Cell viability is reported both mono and co-culture models.
[3] = tested on: Colon cancer organoid; experiment: Optimized Dual-Glo assay to identify co-culture induced drug vulnerabilities using donated chemical probes and chemogenomics kinase set in O20 CRC organoid and F20 CAF mono and co-culture. […] Cell viability is reported both mono and co-culture models.
[4] = Culture type Co-Culture, Transduced with Lucferase2-P2A-EGFP lentivirus
[5] = Culture type Co-Culture, Transduced with Renilla-dsRed lentivirus
[6] = Culture type Mono-Culture, Transduced with Lucferase2-P2A-EGFP lentivirus
[7] = Culture type Mono-Culture, Transduced with Renilla-dsRed lentivirus

Compound	Cell Viability [1, 4] [%]	Cell Viability [1, 5] [%]	Cell Viability [1, 6] [%]	Cell Viability [1, 7] [%]	Cell Viability [2, 4] [%]	Cell Viability [2, 5] [%]	Cell Viability [2, 6] [%]	Cell Viability [2, 7] [%]	Cell Viability [3, 4] [%]	Cell Viability [3, 5] [%]	Cell Viability [3, 6] [%]	Cell Viability [3, 7] [%]
CC(C)S(=O)(=O)c1ccc2nccc(Nc3ccc4scnc4c3)c2c1	84.0973	95.5761	123.937	111.512	101.708	94.4181	92.6068	100.536	145.741	98.2209	115.329	92.1603
CCN1CCN(c2ccc(Nc3cc(N(C)C(=O)Nc4c(Cl)c(OC)cc(OC)c4Cl)ncn3)cc2)CC1 [INFIGRATINIB]	0.6967	125.024	12.6822	113.181	13.9667	230.084	45.8266	126.071	101.104	52.242	73.2403	44.318
COc1cc(Nc2nc(C)cc(-c3cnn4nc(OC)ccc34)n2)cc(C(F)(F)F)c1	131.373	124.179	105.332	118.145	103.629	105.362	103.076	99.2277	136.021	99.6244	133.384	109.532
CCCc1cc(C)[nH]c(=O)c1CNC(=O)c1cc(-c2ccc(N3CCN(C(C)C)CC3)nc2)cc2c1cnn2C(C)C	81.1391	118.175	116.95	88.1686	66.7096	94.8471	83.1931	95.0739	58.7881	157.842	61.2858	75.3301
O=C(c1ccc(C(=O)N2CCC(N3CCCC3)CC2)c(Nc2ccccc2)c1)N1CCC(N2CCCC2)CC1	108.091	96.0319	93.2966	98.6037	102.524	98.4049	104.115	98.5481	128.422	96.2949	123.486	97.1366
CCC(=O)N1CCOc2c(cc(-c3ccc(OC)c(OC)c3)cc2OCC2CCCN(C)C2)C1 (stereo not drawn)	113.999	135.091	45.0129	100.645	85.4363	159.816	85.7096	112.054	85.3108	123.175	108.47	90.76
CC(C)N(CCCNC(=O)Nc1ccc(C(C)(C)C)cc1)C[C@H]1O[C@@H](n2cc(Br)c3c(N)ncnc32)[C@H](O)[C@@H]1O	62.4885	97.8527	76.7332	88.3272	69.7796	119.823	60.0766	78.3641	59.1388	110.156	82.1777	84.781
CC(C)(C#Cc1ccc(NC(=O)COc2ccccc2C(=O)c2ccccc2)c(Cl)c1)C(=O)O [BI 2439]	98.7582	98.9732	147.342	109.263	91.5107	105.147	118.998	103.818	147.968	100.148	97.854	121.686
CC(=O)Nc1ncc(CN2CCC[C@H](Cc3cc(C)nc(C)c3)C2)s1 [JNJ-65355394]	144.109	117.923	95.1702	105.247	87.2976	97.4656	96.7484	85.3088	88.5022	103.797	76.2761	119.778
